15 molecules from US8618286B2, “Benzoxazines, benzothiazines, and related compounds having NOS inhibitory activity” (NeurAxon, Inc., priority 2008, dated 2013) can be followed below.

Where a name gives a salt, the structure may show the parent alone.

Type in all cases: biochemical
Test [1] addresses Recombinant human inducible NOS (iNOS) (Homo sapiens (Human), UniProt P35228). As to the kind of experiment: Human iNOS enzyme assay (Protocol 1 or Protocol 2, radiometric). The procedure:
The human iNOS assay was carried by either one of the two protocols as described herein:
Recombinant human inducible NOS (iNOS) was produced in Baculovirus-infected Sf9 cells (ALEXIS). In a radiometric method, NO synthase activity was determined by measuring the conversion of [^3H]L-arginine to [^3H]L-citrulline. To measure iNOS, 10 μL of enzyme was added to 100 μL of 100 mM HEPES, pH=7.4, containing 1 mM CaCl2, 1 mM EDTA, 1 mM dithiothreitol, 1 μM FMN, 1 μM FAD, 10 μM tetrahydrobiopterin, 120 μM NADPH, and 100 nM CaM.
To measure enzyme inhibition, a 15 μL solution of a test substance was added to the enzyme assay solution, followed by a pre-incubation time of 15 min at RT. The reaction was initiated by addition of 20 μL L-arginine containing 0.25 μCi of [^3H] arginine/mL and 24 μM L-arginine. The total volume of the reaction mixture was 150 μL in every well. The reactions were carried out at 37° C. for 45 minutes, The reaction was stopped by adding 20 μL of ice-cold buffer containing 100 mM HEPES, 3 mM EGTA, 3 mM EDTA, pH=5.5. [^3H]L-citrulline was separated by DOWEX (ion-exchange resin DOWEX 50 W×8-400, SIGMA) and the DOWEX was removed by spinning at 12,000 g for 10 min in the centrifuge. An aliquot (70 μL) of the supernatant was added to 100 μL of scintillation fluid, and the samples were counted in a liquid scintillation counter (1450 Microbeta Jet, Wallac). Specific NOS activity was reported as the difference between the activity recovered from the test solution and that observed in a control sample containing 240 mM of the inhibitor L-NMMA. All assays were performed at least in duplicate. Standard deviations are 10% or less.
Primary stock solutions of each test compound were prepared in distilled water on the day of study to obtain a final concentration of 6 mM. For the determination of IC50 values, 11 test compound concentrations were prepared as 3-fold serial dilutions. Test compounds were tested in the iNOS assay at a concentration of 1000 μM to 0.0169 μM. The vehicle of the test compound or inhibitor, distilled water, was used as blank control. For non-specific activity, 100 μM L-NMMA was run in parallel as a control.
All incubations were performed in duplicate
The reaction mixture was prepared on ice by the addition of the following components to the appropriate well of a 1.0 mL 96-well polypropylene plate:
10 μL of test compound, reference inhibitor, or control (vehicle or L-NMMA) solution;
25 μL of Reaction Buffer (50 mM Tris-HCl, 6 μM BH4, 2 μM FMN, 2 μM FAD);
5 μL of 10 mM NADPH solution;
5 μL of 1 μM Calmodulin; and
The reaction mixture was pre-incubated at room temperature for 15 minutes. Following this pre-incubation, the reaction was initiated by the addition of 5 μL of the substrate L-arginine (1 μCi of [^3H]-L-Arginine+30 μM of unlabeled L-Arginine) to the reaction mixture. The total reaction volume was 60 μL. The assay plate containing the reaction mixtures was sealed and incubated at 37° C. for 30 minutes. At the end of this incubation period, 400 μL of ice-cold Stop Buffer (the EDTA in the Stop Buffer chelates all of the available calcium) was added to each well to stop the reaction. 100 μL of equilibrated resin pH 5.5 was added to each of the assay wells. The reaction samples were vortexed and transferred to spin cups, after-which they were centrifuged at 13,000 rpm for 30 sec. The spin cups were removed from the holder and […] (containing the unbound L-citrulline) were added to the appropriate wells of a 96-well liquid scintillation plate. 175 μL of scintillation fluid were also added to each well. The plate was sealed, and radioactivity was quantitated using a Microbeta liquid scintillation counter.
Data were analyzed using a Sigmoidal dose-response (variable slope) curve to determine the IC50 value of the test compound. Y=Bottom+(Top−Bottom)/(1+10^((Log IC50−X)*Hill Slope))

Test [2] has as its target Nitric oxide synthase (endothelial, human recombinant) eNOS (Homo sapiens (Human), UniProt P29474). Kind of test: Human eNOS enzyme assay ([3H]-L-arginine to L-citrulline conversion). The procedure:
(§1) nNOS (Human), eNOS (Human) and iNOS (Human) Enzyme Assay
(§2) Primary stock solutions of test compounds at a concentration of 6 mM were prepared from the 2 to 5 mg powder. The primary stock solutions of each test compound were prepared freshly in distilled water on the day of study to obtain a final concentration of 6 mM. For determination of IC50 values, 12 test compound concentrations were prepared as 3-fold serial dilutions. Concentration range of test compound utilized for nNOS were 0.001 to 300 μM and for eNOS were 0.003 to 1000 μM. The vehicle of the test compound or inhibitor was used as blank control. For non-specific activity, 100 μM L-NMMA was used. Runs using the IC50 concentration of L-NAME were done in parallel as controls.
(§3) All incubations are performed in duplicate
(§4) The reaction mixture was prepared on ice by adding the following components with a micropipette to a polypropylene microcentrifuge tube: • 10 μL of test compound, inhibitor or control (vehicle or L-NMMA) solution; • 25 μL of Reaction Buffer {25 mM Tris-HCl, 0.6 μM BH4, 0.2 μM FMN, 0.2 μM FAD}; • 5 μL of 10 mM NADPH solution {1 mM} (freshly prepared in 10 mM Tris-HCl (pH 7.4); • 5 μL of 6 mM CaCl2 {600 W}; • 5 μL of 1 mM Calmodulin {100 W}; and • 5 μL of 0.02 μg/μL nNOS or 0.12 μg/μL eNOS.
(§5) The above reaction mixture was pre-incubated at room temperature for 15 mins.
(§6) The reaction was started by the addition of the substrate (in 5 μL containing 1 μCi of [^3H]-L-Arginine+2.5 μM of unlabeled L-Arginine) to the reaction mixture. Total reaction volume is 60 μL.
(§7) The reaction was mixed using a vortex mixer and incubate the above reaction mixture at 37° C. in an incubator for 30 minutes.
(§8) To stop the reaction, 400 μL of ice-cold Stop Buffer was added at the end of the incubation period.
(§9) The reaction was then mixed using a vortex mixer, and the reaction samples were transferred to spin cups, which were centrifuged using a microcentrifuge, at 13,000 rpm for 30 sec. at room temperature.
(§10) The spin cups were removed from the holder, 450 μL of eluate (containing the unbound L-citrulline) were transferred to scintillation vials. 3 mL of scintillation fluid were added and the radioactivity was quantified in a liquid scintillation counter.
(§11) Data was analyzed using a Sigmoidal dose-response (variable slope) curve to determine the IC50 value of the test compound. Y=Bottom+(Top−Bottom)/(1+10^((Log IC50−X)*Hill Slope))

The target in test [3] is Nitric oxide synthase (neuronal, human recombinant) nNOS (Homo sapiens (Human), UniProt P29475). Kind of test: Human nNOS enzyme assay ([3H]-L-arginine to L-citrulline conversion). The conditions noted are these: for Selectivity eNOS/nNOS: ratio of human eNOS IC50 to human nNOS IC50; for IC50: recombinant human nNOS. The procedure: as §1, §2, §3, §4, §5, §6, §7, §8, §9, §10, §11

A word on the IC50: it is the concentration that inhibits the measured activity by half. As to `N=C(Nc1ccc2c(c1)SCCN2CCNCCO)c1cccs1` [Compound 16, N-(4-(2-(2-hydroxyethylamino)ethyl)-3,4-dihydro-2H-benzo[b][1,4]thiazin-7-yl)thiophene-2-carboximidamide dihydrochloride], the IC50 is 58.7 µM in test [1], 7 µM in test [2] and 0.034 µM in test [3]. Also, in test [3], the “Selectivity eNOS/nNOS” value is 205.
As to `CN(C)CCN1CCOc2ccc(NC(=N)c3cccs3)cc21` [Compound 9, N-(4-(2-(dimethylamino)ethyl)-3,4-dihydro-2H-benzo[b][1,4]oxazin-6-yl)-thiophene-2-carboximidamide], the IC50 in test [1] came to 7.25 µM; in test [2] it was 36.5 µM; in test [3], 0.2 µM. For the same molecule, the “Selectivity eNOS/nNOS” value in test [3] is given as 182.5.
For `CN(C)CCN1C(=O)COc2cc(NC(=N)c3cccs3)ccc21` [Compound 5, N-(4-(2-(Dimethylamino)ethyl)-3-oxo-3,4-dihydro-2H-benzo[b][1,4]oxazin-7-yl)thiophene-2-carboximidamide] the same measures were over 100 µM, 47 µM, 1.84 µM and 25.5.
For `CN(C)CCN1CCOc2cc(NC(=N)c3cccs3)ccc21` [Compound 6, N-(4-(2-(dimethylamino)ethyl)-3,4-dihydro-2H-benzo[b][1,4]oxazin-7-yl)thiophene-2-carboximidamide] the same measures were 10.9 µM, 41.7 µM, 0.2 µM and 208.5.
The corresponding values for `CN(C)CCN1CCSc2cc(NC(=N)c3cccs3)ccc21` [Compound 12, N-(4-(2-(Dimethylamino)ethyl)-3,4-dihydro-2H-benzo[b][1,4]thiazin-7-yl)thiophene-2-carboximidamide dihydrochloride] are 62.9 µM, 19.1 µM, 0.12 µM and 159.1.
Turning to `CCNCCN1CCSc2ccc(NC(=N)c3cccs3)cc21` [Compound 24, N-(4-(2-(ethylamino)ethyl)-3,4-dihydro-2H-benzo[b][1,4]thiazin-6-yl)thiophene-2-carboximidamide], the values for the half-maximal inhibitory concentration (IC50) in test [1], in test [2] and in test [3] were 82.3 µM, 4.45 µM and 0.05 µM, respectively. Further, in test [3], the “Selectivity eNOS/nNOS” value amounted to 89.
The corresponding values for `CCN(CC)CCN1CCSc2cc(NC(=N)c3cccs3)ccc21` [Compound 15, N-(4-(2-(Diethylamino)ethyl)-3,4-dihydro-2H-benzo[b][1,4]thiazin-7-yl)thiophene-2-carboximidamide] are 40.7 µM, 20.1 µM, 0.15 µM and 134.
The corresponding values for `CCNCCN1CCOc2cc(NC(=N)c3cccs3)ccc21` [Compound 7, N-(4-(2-(ethylamino)ethyl)-3,4-dihydro-2H-benzo[b][1,4]oxazin-7-yl)thiophene-2-carboximidamide dihydrochloride] are over 100 µM, 10.4 µM, 1.06 µM and 9.8.
The corresponding values for `N=C(Nc1ccc2c(c1)SCCN2CCN1CCCC1)c1cccs1` [Compound 11, N-(4-(2-(pyrrolidin-1-yl)ethyl)-3,4-dihydro-2H-benzo[b][1,4]thiazin-7-yl)thiophene-2-carboximidamide] are 117 µM, 24.4 µM, 0.24 µM and 101.6.
`CNCCN1CCSc2cc(NC(=N)c3ccco3)ccc21` [Compound 20, N-(4-(2-(methylamino)ethyl)-3,4-dihydro-2H-benzo[b][1,4]thiazin-7-yl)furan-2-carboximidamide]: the results for the IC50 in test [1], in test [2] and in test [3] were 268 µM, 46.4 µM and 0.16 µM, respectively. Further, in test [3], the “Selectivity eNOS/nNOS” value was 290.
For `CN(C)CCN1CCSc2ccc(NC(=N)c3cccs3)cc21` [Compound 27, N-(4-(2-(dimethylamino)ethyl)-3,4-dihydro-2H-benzo[b][1,4]thiazin-6-yl)thiophene-2-carboximidamide] the same measures were 66.5 µM, 34.9 µM, 0.13 µM and 268.4.
Take `N=C(Nc1ccc2c(c1)SCCN2CCN1CCC[C@H]1C(=O)O)c1cccs1` [Compound 18, (S)-1-(2-(7-(Thiophene-2-carboximidamido)-2H-benzo[b][1,4]thiazin-4(3H)-yl)ethyl)pyrrolidine-2-carboxylic acid dihydrochloride]: the half-inhibitory concentration (IC50) worked out at 341 µM in test [1], 12.6 µM in test [2] and 0.66 µM in test [3]. The “Selectivity eNOS/nNOS” value in test [3] was determined as 19.
For `CN(C)CCCN1CCSc2cc(NC(=N)c3cccs3)ccc21` [Compound 22, N-(4-(3-(Dimethylamino)propyl)-3,4-dihydro-2H-benzo[b][1,4]thiazin-7-yl)thiophene-2-carboximidamide] the same measures were 115 µM, 12.1 µM, 0.014 µM and 864.
On to `CN1CCCC1CCN1CCOc2cc(NC(=N)c3cccs3)ccc21` (stereo not drawn) [Compound 2], for which, in test [3], the “Selectivity eNOS/nNOS” value is listed as 25.3.
Still for that read-out and setting: in the case of `CN1CCCC1CCN1C(=O)COc2cc(NC(=N)c3cccs3)ccc21` (stereo not drawn) [Compound 1] it was 41.9.
